The text below walks through data of patent US11795510B2, “Identification of epigenomic reprogramming in cancer and uses thereof” (The Johns Hopkins University, priority 2016, dated 2023).

Common to all, as to assay type: cell-based, human
One assay deals with A38Lg compared to A38Per. As to the kind of experiment: MTT cell viability assay. As for the experimental part: (§1) Tissue samples and cell lines were previously collected from PDAC patients by rapid autopsy, sequenced-validated, and monitored for mycoplasma as previously described. Low passage (2-17) rapid autopsy cell lines were cultured at 37° C. in DMEM with 10% fetal bovine serum (FBS, Gibco). For MTT assays, 15,000 cells/well were plated into 96 well plates in triplicate, treated 12 hours later, and assayed after 24 hr (glucose responses) or 6 days (chemotherapy) with CellTiter96 (Promega). For glucose response assays, nutrient-deplete DMEM (no glucose, glutamine, pyruvate, or serum) was used with addition of glucose as indicated. For glucose-dependent oxidative stress analysis, cells plated in triplicate and grown to 80% confluence followed by incubation in nutrient-deplete DMEM containing 10% dialyzed FBS with or without 10 mM glucose and 1 mM H2O2 for 24 hours. Cells were then washed with PBS, trypsinized, and viable cells counted with a hemocytometer. Glucose uptake and lactate secretion were measured with a YSI 7100 Bioanalyzer as described in the supplementary methods. For ^13C-1,2 glucose tracing and steady state metabolite profiling, the Q Exactive MS (QE-MS; Thermo Scientific) coupled to liquid chromatography (LC Ultimate 3000 UHPLC) was used for metabolite separation and detection as previously described. Detailed conditions are provided in the supplementary methods.

Another assay concerns normal HPDE cells. The assay can be described thus: Glucose-dependent oxidative stress analysis (viable cell counts), HPDE. Particulars: 1 mM H2O2, 24h, with or without 10 mM glucose. Here is the method: as §1
Assay [1] has as its system local-regional PDAC samples. The assay can be described thus: Glucose-dependent oxidative stress analysis (viable cell counts), local-regional PDAC. To be noted: 1 mM H2O2, 24h, with or without 10 mM glucose. Here is the method: as §1
The test system of assay [2] is distant metastatic subclones. The assay can be described thus: Glucose-dependent oxidative stress analysis (viable cell counts), distant metastatic subclones. To be noted: 1 mM H2O2, 24h, glucose not present in the media. As for the experimental part:
as §1

The subject of assay [3] is global chromatin modifications in peritoneal subclone (A38Per), normal cells (HPDE, fibroblast) and local-regional PDACs. As to the kind of experiment: Western blots of histone modifications, peritoneal subclone, normal cells and local-regional PDACs. Particulars: peritoneal subclone. As for the experimental part:
Histones were acid extracted as described and western blots performed on 3.5 ug histones, which were checked by Ponceau stains prior to western blot to ensure equal loading. Densitometry was performed with ImageJ software. RNA was extracted with Trizol reagent (Life Technologies) and isopropanol precipitated. Genomic DNA was purified with MasterPure DNA extraction reagents (Epicenter). Immunohistochemistry, H&E staining, and immunofluorescence on formalin-fixed, paraffin-embedded (FFPE) tissue microarray sections (TMAs) were performed according to standard procedures.
RNAi experiments were performed with siRNA transfections (Oligofectamine, Life Technologies) using negative control siRNA (Sigma, SIC001) and pre-designed siRNA oligonucleotides against indicated genes in parallel (Sigma, PGD: SASI_Hs02 00334150, CDH2: SASI_Hs01_00153995, TOP2B: SASI_Hs02_00311874). siRNAs against mutant KRAS^G12V (CUACGCCAACAGCUCCAAC) (SEQ ID NO:1) were custom designed. Cells were incubated with siRNAs for 4 days after transfection and harvested. For drug treatments in 2-D, cells were grown to 70-80% confluency and treated for 3 days with 250 uM 6AN or DMSO negative control.
A general note: A western blot detects proteins with antibodies after separation by electrophoresis.

“Also recorded” adds a separate entry of the source.

For the compound `OO` [H2O2], the “cell viability (MTT) under H2O2-mediated oxidative stress” value in the assay on A38Lg compared to A38Per was “highly resistant; also recorded: remarkably resistant”. Further, the “normalized cell counts after H2O2” value in the assay with normal HPDE cells is “sensitive to H2O2 under either glucose condition”; in assay [1] it was “resistant to H2O2 irrespective of glucose availability”; in assay [2], “sensitive to H2O2 when glucose was not present”.
In the case of `Nc1ccn([C@@H]2O[C@H](CO)[C@@H](O)C2(F)F)c(=O)n1` [gemcitabine, Gemcitabine], the “induction of loss of methylation or gain of acetylation (reprogrammed histone modifications) by chemotherapy” value in assay [3] was “did not induce”. For the same compound, in the assay with A38Lg compared to A38Per (assayed after 6 days), the “cell viability (MTT) under gemcitabine” value was “highly resistant; also recorded: completely resistant”.
